Laboratory results: patent US20260305610A1, “TRIAZOLE COMPOUND, AND PREPARATION METHOD THEREFOR, HERBICIDAL COMPOSITION AND USE THEREOF” (QINGDAO KINGAGROOT CHEMICAL COMPOUND CO., LTD., priority 2023, published 2026)

Key:
Assay type in all cases: in vivo
[1] = test system: weeds; experiment: Activity assay of compositions: soil sealing treatment (S), fresh weight inhibition and combined effect (Gowing method); settings: Silene conoidea, 21 d
Outline: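 Pre-emergence soil treatment: pre-germinated seeds sown 72 h earlier, sprayed at 450 kg/ha spray volume, 0.3 MPa; compounds in acetone diluted with 0.1% Tween-80. Greenhouse 20-30 °C; fresh weight of surviving weeds measured 21 days after treatment, 4 replicates. Expected mixture inhibition by Gowing formula, E0=X+Y−X*Y/100.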

[2] = test system: Leptochloa chinensis; experiment: Pre-emergence sealing experiment for water-seeding; design: key: 9: completely dead; 8: growth control rate is greater than or equal to 90% and less than 100%; 7: growth control rate is greater than or equal to 80% and less than 90%; 6: growth control rate is greater than or equal to 70% and less than 80%; growth control rate is greater than or equal to 50% and less than 70%; 4: growth control rate is greater than or equal to 30% and less than 50%; growth control rate is greater than or equal to 20% and less than 30%; growth control rate is greater than or equal to 10% and less than 20%; growth control rate is less than 10%; 0: no effect; settings: 15 days
From the text: (§1) The activity level criteria for plant damage (i.e., growth control rate) are as follows: • Level 9: completely dead; • Level 8: growth control rate is greater than or equal to 90% and less than 100%; • Level 7: growth control rate is greater than or equal to 80% and less than 90%; • Level 6: growth control rate is greater than or equal to 70% and less than 80%; • Level 5: growth control rate is greater than or equal to 50% and less than 70%; • Level 4: growth control rate is greater than or equal to 30% and less than 50%; • Level 3: growth control rate is greater than or equal to 20% and less than 30%; • Level 2: growth control rate is greater than or equal to 10% and less than 20%; • Level 1: growth control rate is less than 10%; • Level 0: no effect.
(§2) The seeds of Leptochloa chinensis, Digitaria sanguinalis, Monochoria vaginalis (sulfonylurea-resistant strain, collected from Hunan, China), Cyperus iria (sulfonylurea-resistant strain, collected from Jiangsu, China), Huaidao (rice cultivar), etc. were broadcasted on the surface of nutrition bowls filled with soil and fully covered by soil. The prepared nutrition bowls were then placed in a cultivation box, with water filled to a suitable height to keep the soil in the nutrition bowls moist. The test compounds of the present invention were individually dissolved with mixed solutions of acetone and Tween-80, then diluted into solution of a certain concentration using a certain amount of water and sprayed using a spray tower. The plants were placed on a greenhouse seedbed and cultured for 15 days, and the experimental results were then collected. The compounds were applied at 120, 60, 30 and 15 g a.i./ha in triplicate and the results were averaged. The effects were evaluated according to the above activity level criteria.

[3] = test system: Monochoria vaginalis; experiment: Pre-emergence sealing experiment for water-seeding; design: key: 9: completely dead; 8: growth control rate is greater than or equal to 90% and less than 100%; 7: growth control rate is greater than or equal to 80% and less than 90%; 6: growth control rate is greater than or equal to 70% and less than 80%; growth control rate is greater than or equal to 50% and less than 70%; 4: growth control rate is greater than or equal to 30% and less than 50%; growth control rate is greater than or equal to 20% and less than 30%; growth control rate is greater than or equal to 10% and less than 20%; growth control rate is less than 10%; 0: no effect; settings: 15 days, sulfonylurea-resistant strain
From the text: as §1, §2

[4] = test system: Cyperus iria; experiment: Pre-emergence sealing experiment for water-seeding; design: key: 9: completely dead; 8: growth control rate is greater than or equal to 90% and less than 100%; 7: growth control rate is greater than or equal to 80% and less than 90%; 6: growth control rate is greater than or equal to 70% and less than 80%; growth control rate is greater than or equal to 50% and less than 70%; 4: growth control rate is greater than or equal to 30% and less than 50%; growth control rate is greater than or equal to 20% and less than 30%; growth control rate is greater than or equal to 10% and less than 20%; growth control rate is less than 10%; 0: no effect; settings: 15 days, sulfonylurea-resistant strain
From the text: as §1, §2

[5] = test system: Digitaria sanguinalis; experiment: Pre-emergence sealing experiment for water-seeding; design: key: 9: completely dead; 8: growth control rate is greater than or equal to 90% and less than 100%; 7: growth control rate is greater than or equal to 80% and less than 90%; 6: growth control rate is greater than or equal to 70% and less than 80%; growth control rate is greater than or equal to 50% and less than 70%; 4: growth control rate is greater than or equal to 30% and less than 50%; growth control rate is greater than or equal to 20% and less than 30%; growth control rate is greater than or equal to 10% and less than 20%; growth control rate is less than 10%; 0: no effect; settings: 15 days
From the text: as §1, §2

[6] = test system: major crops; experiment: Pre-emergence test experiment (crops); design: key: 9: completely dead; 8: growth control rate is greater than or equal to 90% and less than 100%; 7: growth control rate is greater than or equal to 80% and less than 90%; 6: growth control rate is greater than or equal to 70% and less than 80%; growth control rate is greater than or equal to 50% and less than 70%; 4: growth control rate is greater than or equal to 30% and less than 50%; growth control rate is greater than or equal to 20% and less than 30%; growth control rate is greater than or equal to 10% and less than 20%; growth control rate is less than 10%; 0: no effect
[7] = test system: monocotyledonous and dicotyledonous weeds; experiment: Pre-emergence test experiment (weeds); design: key: 9: completely dead; 8: growth control rate is greater than or equal to 90% and less than 100%; 7: growth control rate is greater than or equal to 80% and less than 90%; 6: growth control rate is greater than or equal to 70% and less than 80%; growth control rate is greater than or equal to 50% and less than 70%; 4: growth control rate is greater than or equal to 30% and less than 50%; growth control rate is greater than or equal to 20% and less than 30%; growth control rate is greater than or equal to 10% and less than 20%; growth control rate is less than 10%; 0: no effect
[8] = test system: Echinochloa crusgalli, Schoenoplectiella juncoides and Bidens tripartita; experiment: Resistance of collected weed seeds to pyrazosulfuron-ethyl; settings: conventional doses; seeds collected from Heilongjiang, China

For `COC(=O)c1ccccc1CS(=O)(=O)NC(=O)Nc1nc(OC)cc(OC)n1` [Bensulfuron-methyl, bensulfuron-methyl, reference compound], the “Control effect of B applied alone in a corresponding dose (%)” value (from here on “Control effect of B applied alone … (%)”) ([1]; B 15 g a.i./ha) was 43.7%, the “Control effect of B applied alone … (%)” value ([1]; B 30 g a.i./ha) was 60.5% and the “activity level (growth control rate, fresh weight), Leptochloa chinensis” value (“activity level … Leptochloa chinensis” for short) ([2]; 30 g a.i./ha) was 3 (growth control rate is greater than or equal to 20% and less than 30%). For the same compound, the “activity level (growth control rate, fresh weight), Monochoria vaginalis” value (“activity level … Monochoria vaginalis” below) ([3]; 30 g a.i./ha) was 2 (growth control rate is greater than or equal to 10% and less than 20%), the “activity level (growth control rate, fresh weight), Cyperus iria” value (shortened to “activity level … Cyperus iria”) ([4]; 30 g a.i./ha) was 5 (growth control rate is greater than or equal to 50% and less than 70%) and the “activity level (growth control rate, fresh weight), Digitaria sanguinalis” value ([5]; 30 g a.i./ha) was 4 (growth control rate is greater than or equal to 30% and less than 50%).

With `CCc1ccc(-n2cnc(C(F)(F)F)n2)nc1Oc1cccc(C(F)(F)F)c1` [Compound 16] the “Pre-emergence plant damage level (growth control rate) on Corn” value ([6]; 15 g a.i./ha) was 0, the “Pre-emergence plant damage level (growth control rate) on Cotton” value ([6]; 15 g a.i./ha) was 0 and the “Pre-emergence plant damage level (growth control rate) on Soybean” value ([6]; 15 g a.i./ha) was 0. The “Pre-emergence activity level (growth control rate) on Amaranthus retroflexus” value ([7]; 15 g a.i./ha) was 9, the “Pre-emergence activity level (growth control rate) on Descurainia sophia” value ([7]; 15 g a.i./ha) was 9 and the “Pre-emergence activity level (growth control rate) on Digitaria sanguinalis” value ([7]; 15 g a.i./ha) was 9. For the same compound, the “Pre-emergence activity level (growth control rate) on Setaria viridis” value ([7]; 15 g a.i./ha) was 9, the “Pre-emergence activity level (growth control rate) on Solanum nigrum” value ([7]; 15 g a.i./ha) was 9 and the “Pre-emergence activity level (growth control rate) on Veronica” value ([7]; 15 g a.i./ha) was 9. The “activity level … Leptochloa chinensis” value ([2]; 15 g a.i./ha) was 9, the “activity level … Monochoria vaginalis” value ([3]; 15 g a.i./ha) was 9 and the “activity level … Cyperus iria” value ([4]; 15 g a.i./ha) was 9. The “activity level (growth control rate, fresh weight), Digitaria sanguinalis” value ([5]; 15 g a.i./ha) was 9.

In the case of `COCc1ccc(-n2cnc(C(F)(F)F)n2)nc1Oc1cccc(C(F)(F)F)c1` [Compound 23], the “Pre-emergence plant damage level (growth control rate) on Corn” value ([6]; 30 g a.i./ha) is reported as 0, the “Pre-emergence plant damage level (growth control rate) on Cotton” value ([6]; 30 g a.i./ha) is reported as 0 and the “Pre-emergence plant damage level (growth control rate) on Soybean” value ([6]; 30 g a.i./ha) is reported as 0. The “Pre-emergence activity level (growth control rate) on Amaranthus retroflexus” value ([7]; 30 g a.i./ha) was 9, the “Pre-emergence activity level (growth control rate) on Descurainia sophia” value ([7]; 30 g a.i./ha) was 9 and the “Pre-emergence activity level (growth control rate) on Digitaria sanguinalis” value ([7]; 30 g a.i./ha) was 9. The “Pre-emergence activity level (growth control rate) on Setaria viridis” value ([7]; 30 g a.i./ha) was 8 (growth control rate is greater than or equal to 90% and less than 100%), the “Pre-emergence activity level (growth control rate) on Solanum nigrum” value ([7]; 30 g a.i./ha) was 9 and the “Pre-emergence activity level (growth control rate) on Veronica” value ([7]; 30 g a.i./ha) was 9. The “activity level … Leptochloa chinensis” value ([2]; 15 g a.i./ha) was 9, the “activity level … Monochoria vaginalis” value ([3]; 15 g a.i./ha) was 9 and the “activity level … Cyperus iria” value ([4]; 15 g a.i./ha) was 9. For the same compound, the “activity level (growth control rate, fresh weight), Digitaria sanguinalis” value ([5]; 15 g a.i./ha) was 9.

With `CCOC(=O)c1cnn(C)c1S(=O)(=O)NC(=O)Nc1nc(OC)cc(OC)n1` [pyrazosulfuron-ethyl, reference compound] the “resistance of collected weed seeds” value [8] was “resistant to conventional doses”, the “Control effect of B applied alone … (%)” value ([1]; B 15 g a.i./ha) was 50.4% and the “Control effect of B applied alone … (%)” value ([1]; B 30 g a.i./ha) was 65.6%.
